Values joined by “and” are separate entries in the source; they are usually repeats but may differ in a detail not shown here. Equal values may be shown once. Starred links: 1 amine or outer side, 2 acyl side, 3 side chain; linkers in the order of their positions; H or OH if unused. Non-standard residues stand in square brackets, D forms with d. Residues, ends and D or L forms follow the SMILES beside them. X3 = O=C([C@@H](N[*:1])C(O)c1ccc(O)cc1)[*:2]; X2 = CCCCCCCCCCCCNCCC(CC(=O)[*:2])N[*:1]; X1 = NC(=O)C(O)[C@H](N[*:1])C(=O)[*:2]; Dab = NCC[C@H](N)C(=O)O
Assays:
[1] = system: S. cerevisiae, Candida albicans, and Candida glabrata; assay: MIC comparison with native occidiofungin over the yeasts tested; format: cell-based; conditions: against the Candida species tested and S. cerevisiae strain tested
Method: (§1) MIC assays were performed in duplicate following a modified version of the CLSI M27-A3 protocol as previously described ([Ravichandran et al., 2019]).

[2] = system: Saccharomyces cerevisiae DGY6 haploid BY4741; assay: Minimum inhibitory concentration assay; format: cell-based; conditions: for fold of native compound's concentration at which completely inactive: against S. cerevisiae; for MIC: S. cerevisiae DGY6 haploid BY4741, modified CLSI M27-A3, 24 h incubation, duplicate
Method: as §1

[3] = HPLC percentage of water at elution (polarity); format: physicochemical; conditions: chromatographic, analytical C18 (Agilent ZORBAX ODS, 5 μm, 4.6 × 250 mm); 30-min gradient from 90 to 20% water/ACN, 0.1% TFA; UV 220 nm; used as measure of polarity
Method: A two-step procedure of reductive amination was used to introduce a primary or secondary amine onto the aldehyde analog. The first step of reaction involves the formation of an intermediate carbinol amine, which is then dehydrated and protonated to form an iminium ion. Subsequent reduction of this iminium ion with sodium borohydride produces an alkylated amine product. The aldehyde analog of occidiofungin was dissolved in DMSO at a concentration of 10 mg/ml. Three amines (undecylamine, dodecylamine, and DL-dihydrosphingosine) were used for reductive amination. Aldehyde analog (10 μl of DMSO stock solution; 100 μg) was mixed with 10-fold excess of an amino lipid (molar ratio) in 400 μl pure methanol. The sample was then incubated at room temperature for at least 16 h. Solid sodium borohydride (6 mg) was weighted on an analytical balance (Adventurer™ Pro AV114C, Ohaus Corporation, USA) and was directly transferred into the reaction mixture, mixed well, and was incubated at room temperature for 5 min. The reaction mixture was diluted to 1 ml with 50% ACN 0.1% TFA and was separated by HPLC using a 30-min gradient from 90 to 20% water/ACN on the analytical C18 column. HPLC solvents contained 0.1% TFA. Products that eluted between 50% and 30% water were collected and analyzed by electrospray ionization mass spectrometry (ESI-MS) on a ThermoFisher DecaXP ion trap mass spectrometer. The yield of each HPLC sample was quantified by comparing the peak area of each analog to the peak area of a 100 μg standard of occidiofungin. Electrospray ionization mass spectrometry (ESI-MS) experiments were performed using a Thermo Scientific Q Exactive Focus. Sample was loop injected (10 μl) and acetonitrile with 0.1% formic acid was used as a mobile phase at a flow rate of 600 μl/min. The Q Exactive Focus HESI source was operated in full MS in positive mode. The mass resolution was tuned to 70,000 FWHM at m/z 200. The spray voltage was set to 3.5 kV, and the sheath gas and auxiliary gas flow rates were set to 40 and 10 arbitrary units, respectively. The transfer capillary temperature was held at 300°C and the S-Lens RF level was set at 50 v. Exactive Series 2.11 /Xcalibur 4.2.47 software was used for data acquisition and processing. The alkyne occidiofungin (alkyne-OCF) used for fluorescent microscopy was synthesized as previously described ([Ravichandran et al., 2019]).

[4] = system: Saccharomyces cerevisiae cells; assay: Fluorescent microscopy and competitive binding (uptake) assay with alkyne-occidiofungin; format: cell-based; conditions: 5 min pretreatment at 1X MIC of native occidiofungin, then 1X MIC alkyne-OCF 30 min; fluorescence microscopy
Method: After 30 min, the cells were fixed then permeabilized. Click reaction was performed with azide-derivatized Alexa Fluor 488 as per the kit-supplied protocol (Click-iT EdU imaging kit; Thermo Fisher Scientific). The cells were suspended in […]® Antifade Mounting Medium and visualized with a Leica DM 6B microscope. […] The cells were then fixed, permeabilized and Click reaction was performed as previously described ([Ravichandran et al., 2019]).

G-actin = assay: Pyrene labeled actin polymerization assay; format: biochemical; conditions: 5 μM compound; duplicate
Method: (§2) Actin polymerization and depolymerization assays were performed using the Actin polymerization biochem kit (# BK003; Cytoskeleton, Inc. Denver, CO) following the manufacturer’s instructions with some modifications. Briefly, for the polymerization assay, G-actin stock solution was made at 0.2 mg/ml instead of 0.4 mg/ml. For the depolymerization assay, F-actin stock solution was diluted nine-fold instead of five-fold. Test compounds including phalloidin, DL-dihydrosphingosine analog, and native occidiofungin were tested at a final concentration of 5 μM. The experiments were done in duplicate.

[5] = system: Candida glabrata ATCC 2001; assay: Minimum inhibitory concentration assay; format: cell-based; conditions: C. glabrata ATCC 2001; modified CLSI M27-A3; 24 h incubation; duplicate
Method: as §1

[6] = system: Candida albicans ATCC 3147; assay: Minimum inhibitory concentration assay; format: cell-based; conditions: C. albicans ATCC 3147; modified CLSI M27-A3; 24 h incubation; duplicate
Method: as §1

F-actin = assay: Pyrene labeled actin depolymerization assay; format: biochemical; conditions: 5 μM compound; duplicate
Method: as §2

[7] = target: T1, F-actin (rabbit skeletal muscle filamentous actin) (Oryctolagus cuniculus, UniProt P68135); design: method as in Ravichandran et al., 2019; conditions: co-sedimentation, published previously, ref Ravichandran et al., 2019, cited from earlier work; for Kd: read-out: Kd value for binding to F-actin
T1 construct: Purified rabbit skeletal muscle filamentous actin (AKF99); purchased Cytoskeleton Inc. (Denver, CO) AKF99; host or cells: rabbit skeletal muscle (tissue-purified)

Molecule	fold of native occidiofungin's inhibitory concentration at which inactive [1] [fold]	fold of native compound's concentration at which completely inactive [2] [fold]	percentage of water for the HPLC retention time [3] [%]	effect of pretreatment on internalization of alkyne-OCF [4]	effect on actin polymerization (in words) (G-actin)	MIC [2] [µg/mL]	MIC [5] [µg/mL]	MIC [6] [µg/mL]	effect on actin depolymerization (in words) (F-actin)	saturation of binding ratio (ligand:actin monomer) [7]	Kd [7]
CCCCCCCCCCCCNCCC1CC(=O)N[C@@H](CO)C(=O)N[C@@H](C(O)c2ccc(O)cc2)C(=O)N[C@@H](CCN)C(=O)NCC(=O)N[C@@H](CC(N)=O)C(=O)N[C@@H](CO)C(=O)N[C@@H](C(O)C(N)=O)C(=O)N1 (stereo partly drawn) [Dodecylamine] (cyclo([X1][X2]S[X3][Dab]GNS))	64	64	47	did not interfere with the internalization of the alkyne-OCF							
DL-dihydrosphingosine			33		did not interfere with polymerization or depolymerization	2	8	16	did not interfere with polymerization or depolymerization		
Undecylamine	64	64	50			>4	>8	>32			
occidiofungin [Native occidiofungin, reference compound]			48	prevented internalization of alkyne-OCF	did not interfere with polymerization or depolymerization	0.0625	0.5	0.5	did not interfere with polymerization or depolymerization	more than 20 molecules of occidiofungin to one actin monomer	1050 nM
phalloidin									completely blocked the depolymerization of F-actin		~8 nM and 8 nM
